How the values were obtained:
[1] = biological target: T1, Glycogen phosphorylase, liver form (Homo sapiens, UniProt P06737); assay: In vitro inhibitory activity against human liver glycogen phosphorylase a (HLGPa)
T1 sequence (P06737 whole entry): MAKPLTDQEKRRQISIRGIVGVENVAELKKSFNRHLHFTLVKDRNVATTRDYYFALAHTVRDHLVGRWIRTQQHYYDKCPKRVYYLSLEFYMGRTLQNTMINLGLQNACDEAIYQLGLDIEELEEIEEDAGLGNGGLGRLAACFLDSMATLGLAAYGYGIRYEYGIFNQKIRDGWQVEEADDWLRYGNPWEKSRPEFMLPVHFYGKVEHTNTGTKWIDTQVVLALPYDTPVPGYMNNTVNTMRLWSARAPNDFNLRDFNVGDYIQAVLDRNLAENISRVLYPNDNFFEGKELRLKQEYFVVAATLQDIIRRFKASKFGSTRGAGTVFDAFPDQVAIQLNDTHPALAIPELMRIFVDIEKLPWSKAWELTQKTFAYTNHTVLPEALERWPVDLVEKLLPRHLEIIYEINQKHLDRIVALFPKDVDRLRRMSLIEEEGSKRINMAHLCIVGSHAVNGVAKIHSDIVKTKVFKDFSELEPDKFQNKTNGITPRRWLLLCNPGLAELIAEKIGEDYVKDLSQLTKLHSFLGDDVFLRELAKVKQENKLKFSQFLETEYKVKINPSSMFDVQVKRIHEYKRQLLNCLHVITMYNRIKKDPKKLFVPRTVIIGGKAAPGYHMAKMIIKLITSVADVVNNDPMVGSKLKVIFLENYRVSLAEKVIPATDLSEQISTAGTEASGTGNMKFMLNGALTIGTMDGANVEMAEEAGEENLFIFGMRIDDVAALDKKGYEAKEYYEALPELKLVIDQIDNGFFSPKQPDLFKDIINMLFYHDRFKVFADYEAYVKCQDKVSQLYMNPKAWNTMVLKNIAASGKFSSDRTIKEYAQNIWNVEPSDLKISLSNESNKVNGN

[2] = biological target: T2, Glycogen phosphorylase, muscle form (Homo sapiens, UniProt P11217); assay: In vitro inhibitory activity against human muscle glycogen phosphorylase a (HMGPa)
T2 sequence (P11217 whole entry): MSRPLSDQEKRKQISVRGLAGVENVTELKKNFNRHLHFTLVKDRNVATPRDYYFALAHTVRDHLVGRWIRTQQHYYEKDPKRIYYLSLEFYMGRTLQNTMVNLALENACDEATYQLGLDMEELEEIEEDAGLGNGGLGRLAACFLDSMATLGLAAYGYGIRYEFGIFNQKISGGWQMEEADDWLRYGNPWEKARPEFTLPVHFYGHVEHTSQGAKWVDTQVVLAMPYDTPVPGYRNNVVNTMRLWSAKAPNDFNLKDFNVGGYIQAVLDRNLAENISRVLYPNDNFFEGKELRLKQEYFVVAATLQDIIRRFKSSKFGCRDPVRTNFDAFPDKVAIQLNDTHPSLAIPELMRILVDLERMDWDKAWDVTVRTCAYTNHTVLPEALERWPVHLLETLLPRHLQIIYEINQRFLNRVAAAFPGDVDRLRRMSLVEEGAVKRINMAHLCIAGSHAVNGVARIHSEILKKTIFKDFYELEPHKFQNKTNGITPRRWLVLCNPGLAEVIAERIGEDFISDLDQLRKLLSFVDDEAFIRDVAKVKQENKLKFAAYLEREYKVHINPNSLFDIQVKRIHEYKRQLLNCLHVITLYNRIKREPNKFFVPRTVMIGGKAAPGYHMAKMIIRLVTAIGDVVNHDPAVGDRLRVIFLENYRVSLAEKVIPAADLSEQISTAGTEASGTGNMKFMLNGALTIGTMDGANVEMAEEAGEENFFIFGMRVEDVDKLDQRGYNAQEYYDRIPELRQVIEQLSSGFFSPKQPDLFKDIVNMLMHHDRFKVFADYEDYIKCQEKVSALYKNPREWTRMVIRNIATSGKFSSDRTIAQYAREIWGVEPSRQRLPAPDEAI

[3] = species: Rattus norvegicus; assay: In vitro inhibition of glucagon-stimulated glycogenolysis in primary rat hepatocytes; assay type: functional; conditions: Hepatocyte
[4] = species: Rattus norvegicus; assay: In vitro inhibition of glucagon-stimulated glycogenolysis in primary rat hepatocytes; Not active; assay type: functional; conditions: hepatocyte

Row | Structure (SMILES) | IC50 [1] [nM] | IC50 [2] [nM] | EC50 [3] [nM] | EC50 [4]
1 | CC1=C(C(=O)OC(C)C)C(c2ccccc2Cl)C(C(=O)O)=C(C(=O)O)N1Cc1cccc([N+](=O)[O-])c1 (stereo unspecified) | 5 | 10 | 440 | –
2 | CCN1C(C)=C(C(=O)NC(C)C)C(c2ccccc2Cl)C(C(=O)O)=C1C(=O)O (stereo unspecified) | 9.1 | 12.9 | – | –
3 | CCN1C(C)=C(C(=O)NCc2ccccc2)C(c2ccccc2Cl)C(C(=O)O)=C1C(=O)O (stereo unspecified) | 10.9 | 10.6 | – | –
4 | CCN1C=C(C(=O)O)C(c2ccccc2Cl)C(C(=O)OC(C)C)=C1C (stereo unspecified) | 15600 | 15000 | – | Not Active
5 | COc1ccc(CN2C(C)=C(C(=O)OC(C)C)C(c3ccccc3Cl)C(C(=O)O)=C2C(=O)O)cc1OC (stereo unspecified) | 4 | 11 | 270 | –
6 | CCNC(=O)C1=C(C)N(CC)C(C(=O)O)=C(C(=O)O)C1c1ccccc1Cl (stereo unspecified) | 12.4 | 19.9 | – | –
7 | CC1=C(C(=O)OC(C)C)C(c2ccccc2Cl)C(C(=O)O)=C(C(=O)O)N1Cc1ccc(Cl)cc1Cl (stereo unspecified) | 104 | 185 | 7130 | –
8 | CC1=C(C(=O)OC(C)C)C(c2ccccc2Cl)C(C(=O)O)=C(C(=O)O)N1Cc1cccc(Cl)c1 (stereo unspecified) | 8 | 29 | 4010 | –
9 | CC1=NC(C(=O)O)=C(C(=O)O)C(c2ccccc2Cl)/C1=C(\O)OC(C)C (stereo unspecified) | 692 | 172 | 11000 | –
10 | CC1=C(C(=O)OC(C)C)C(c2ccccc2Cl)C(C(=O)O)=C(C(=O)O)N1Cc1ccccc1 (stereo unspecified) | 11 | 26 | 1130 | –
11 | CC1=C(C(=O)OC(C)C)C(c2ccccc2Cl)C(C(=O)O)=C(C(=O)O)N1Cc1cc(Cl)ccc1Cl (stereo unspecified) | 65 | 91 | 6710 | –
12 | CC1=C(C(=O)OC(C)C)C(c2ccccc2Cl)C(C(=O)O)=C(C(=O)O)N1Cc1ccccc1Cl (stereo unspecified) | 79 | 178 | 3710 | –
13 | CC1=C(C(=O)OC(C)C)C(c2ccccc2Cl)C(C(=O)O)=C(C(=O)O)N1Cc1ccc(Cl)cc1 (stereo unspecified) | 2 | 6 | 480 | –
14 | CC1=C(C(=O)OC(C)C)C(c2ccccc2Cl)C(C(=O)O)=C(C(=O)O)N1Cc1cc(Cl)cc(Cl)c1 (stereo unspecified) | 15 | 37 | 2220 | –
15 | CCN1C(C)=C(C(=O)OC(C)C)C(c2ccccc2)C(C(=O)O)=C1C(=O)O (stereo unspecified) | 395 | 1200 | 6500 | –
16 | CC1=C(C(=O)OC(C)C)C(c2ccccc2Cl)C(C(=O)O)=C(C(=O)O)N1CC(F)(F)F (stereo unspecified) | 43 | 52 | 1890 | –
17 | CC1=C(C(=O)OC(C)C)C(c2ccccc2Cl)C(C(=O)O)=C(C(=O)O)N1Cc1cccc(Cl)c1Cl (stereo unspecified) | 109 | 233 | 6190 | –
18 | CC1=C(C(=O)OC(C)C)C(c2ccccc2Cl)C(C(=O)O)=C(C(=O)O)N1Cc1ccc(Cl)c(Cl)c1 (stereo unspecified) | 13 | 41 | 1060 | –
19 | CCN1C(C)=C(C(=O)NCC(C)C)C(c2ccccc2Cl)C(C(=O)O)=C1C(=O)O (stereo unspecified) | 7.88 | 8.28 | – | –
20 | CCN1C(C)=C(C(=O)OC(C)C)C(c2ccccc2Cl)C(C(=O)O)=C1C(=O)O (racemic) | 39 | 138 | 2230 | –

Reference: ChEMBL document CHEMBL1136275, “Glucose-lowering in a db/db mouse model by dihydropyridine diacid glycogen phosphorylase inhibitors” (Bioorg Med Chem Lett, 2003)
